Species on record: Rattus norvegicus
Assay: DrugMatrix - Regimen: Daily Repeat
Type: toxicity, organism-based, Sprague-Dawley
Design: regimen Daily Repeat, gender Male, age 6-8 weeks
Settings: in vivo, po, route oral GAVAGE, vehicle .5 % CMC; for ABSOLUTE BASOPHIL / ABSOLUTE EOSINOPHIL / ABSOLUTE LYMPHOCYTE / ABSOLUTE SEGMENTED NEUTROPHIL / BASOPHIL / EOSINOPHIL / ERYTHROCYTE COUNT / HEMATOCRIT / LYMPHOCYTE / MEAN CORPUSCULAR HEMOGLOBIN / MEAN CORPUSCULAR HEMOGLOBIN CONCENTRATION / MEAN CORPUSCULAR VOLUME / MONOCYTE / NEUTROPHIL / NUCLEATED RED BLOOD CELLS / PLATELET COUNT / LEUKOCYTE COUNT: tissue Blood; for ALANINE AMINOTRANSFERASE / ALBUMIN / ALKALINE PHOSPHATASE / ASPARTATE AMINOTRANSFERASE / BLOOD UREA NITROGEN / CARBON DIOXIDE / CHLORIDE / CHOLESTEROL / CREATINE PHOSPHOKINASE / CREATININE / GLUCOSE / LACTATE DEHYDROGENASE / PHOSPHORUS / POTASSIUM / SODIUM / TOTAL BILIRUBIN / TOTAL PROTEIN / URIC ACID: tissue Plasma
[1] = 0 mg/kg, 72 h, dose level Control, time 3 day
[2] = 0 mg/kg, 120 h, dose level Control, time 5 day
[3] = 3 mg/kg, 72 h, dose level Low, time 3 day
[4] = 3 mg/kg, 120 h, dose level Low, time 5 day

`CCN(CC)CCOc1ccc(/C(=C(/Cl)c2ccccc2)c2ccccc2)cc1` [ENCLOMIPHENE] was tested, and the “ABSOLUTE BASOPHIL” value [1] was 0 CELLS/uL, the “ABSOLUTE EOSINOPHIL” value [1] was 222.83 CELLS/uL and the “ABSOLUTE LYMPHOCYTE” value [1] was 14453 CELLS/uL. The “ABSOLUTE SEGMENTED NEUTROPHIL” value [1] was 1490.83 CELLS/uL, the BASOPHIL [1] was 0% and the EOSINOPHIL [1] was 1.33%. For the same compound, the “ERYTHROCYTE COUNT” value [1] was 5.76 x10E6/uL, the HEMATOCRIT [1] was 36.52% and the LYMPHOCYTE [1] was 89.33%. The “MEAN CORPUSCULAR HEMOGLOBIN” value [1] was 23.37 pg, the “MEAN CORPUSCULAR HEMOGLOBIN CONCENTRATION” value [1] was 36.85 G/DL and the “MEAN CORPUSCULAR VOLUME” value [1] was 63.47 fL. The MONOCYTE [1] was 0%, the NEUTROPHIL [1] was 9.33% and the “NUCLEATED RED BLOOD CELLS” value [1] was 0 /100WBC. The “PLATELET COUNT” value [1] was 1239.5 x10E3/uL, the “ALANINE AMINOTRANSFERASE” value [1] was 43.83 u/L and the ALBUMIN [1] was 4.27 G/DL. The “ALKALINE PHOSPHATASE” value [1] was 398.83 u/L, the “ASPARTATE AMINOTRANSFERASE” value [1] was 81.17 u/L and the “BLOOD UREA NITROGEN” value [1] was 17.67 mg/dL. The “CARBON DIOXIDE” value [1] was 27.5 mmol/L, the CHLORIDE [1] was 99.17 MEQ/L and the CHOLESTEROL [1] was 74 mg/dL. For the same compound, the “CREATINE PHOSPHOKINASE” value [1] was 331.5 u/L, the CREATININE [1] was 0.2 mg/dL and the GLUCOSE [1] was 171.33 mg/dL. The “LACTATE DEHYDROGENASE” value [1] was 241.67 u/L, the PHOSPHORUS [1] was 12.25 mg/dL and the POTASSIUM [1] was 6.33 MEQ/L. The SODIUM [1] was 141.28 MEQ/L, the “TOTAL BILIRUBIN” value [1] was 0.15 mg/dL and the “TOTAL PROTEIN” value [1] was 5.98 G/DL. For the same compound, the “URIC ACID” value [1] was 1.63 mg/dL, the “ABSOLUTE BASOPHIL” value [2] was 0 CELLS/uL and the “ABSOLUTE EOSINOPHIL” value [2] was 148.67 CELLS/uL. The “ABSOLUTE LYMPHOCYTE” value [2] was 16020.5 CELLS/uL, the “ABSOLUTE SEGMENTED NEUTROPHIL” value [2] was 1468.33 CELLS/uL and the BASOPHIL [2] was 0%. The EOSINOPHIL [2] was 1%, the “ERYTHROCYTE COUNT” value [2] was 5.78 x10E6/uL and the HEMATOCRIT [2] was 35.77%. For the same compound, the “LEUKOCYTE COUNT” value [2] was 17.67 x10E3/uL, the LYMPHOCYTE [2] was 90.5% and the “MEAN CORPUSCULAR HEMOGLOBIN” value [2] was 23.22 pg. The “MEAN CORPUSCULAR HEMOGLOBIN CONCENTRATION” value [2] was 37.47 G/DL, the “MEAN CORPUSCULAR VOLUME” value [2] was 61.92 fL and the MONOCYTE [2] was 0.17%. For the same compound, the NEUTROPHIL [2] was 8.33%, the “NUCLEATED RED BLOOD CELLS” value [2] was 0.17 /100WBC and the “PLATELET COUNT” value [2] was 1255.5 x10E3/uL. The “ALANINE AMINOTRANSFERASE” value [2] was 46.5 u/L, the ALBUMIN [2] was 4.38 G/DL and the “ALKALINE PHOSPHATASE” value [2] was 336 u/L. For the same compound, the “ASPARTATE AMINOTRANSFERASE” value [2] was 76.5 u/L, the “BLOOD UREA NITROGEN” value [2] was 20 mg/dL and the “CARBON DIOXIDE” value [2] was 27.5 mmol/L. For the same compound, the CHLORIDE [2] was 101 MEQ/L, the CHOLESTEROL [2] was 71.33 mg/dL and the “CREATINE PHOSPHOKINASE” value [2] was 231.83 u/L. The CREATININE [2] was 0.37 mg/dL, the GLUCOSE [2] was 168.83 mg/dL and the “LACTATE DEHYDROGENASE” value [2] was 174 u/L. For the same compound, the PHOSPHORUS [2] was 11.48 mg/dL, the POTASSIUM [2] was 6.82 MEQ/L and the SODIUM [2] was 143.8 MEQ/L. For the same compound, the “TOTAL BILIRUBIN” value [2] was 0.2 mg/dL, the “TOTAL PROTEIN” value [2] was 5.98 G/DL and the “URIC ACID” value [2] was 1.83 mg/dL. The “ABSOLUTE BASOPHIL” value [3] was 0 CELLS/uL, the “ABSOLUTE EOSINOPHIL” value [3] was 54.33 CELLS/uL and the “ABSOLUTE LYMPHOCYTE” value [3] was 13020.67 CELLS/uL. For the same compound, the “ABSOLUTE SEGMENTED NEUTROPHIL” value [3] was 996.33 CELLS/uL, the BASOPHIL [3] was 0% and the EOSINOPHIL [3] was 0.33%. The “ERYTHROCYTE COUNT” value [3] was 5.87 x10E6/uL, the HEMATOCRIT [3] was 35.93% and the “LEUKOCYTE COUNT” value [3] was 14.23 x10E3/uL. The LYMPHOCYTE [3] was 91.67%, the “MEAN CORPUSCULAR HEMOGLOBIN” value [3] was 24.23 pg and the “MEAN CORPUSCULAR HEMOGLOBIN CONCENTRATION” value [3] was 39.57 G/DL. For the same compound, the “MEAN CORPUSCULAR VOLUME” value [3] was 61.2 fL, the MONOCYTE [3] was 1% and the NEUTROPHIL [3] was 7%. For the same compound, the “NUCLEATED RED BLOOD CELLS” value [3] was 0 /100WBC, the “PLATELET COUNT” value [3] was 1129 x10E3/uL and the “ALANINE AMINOTRANSFERASE” value [3] was 57.33 u/L. For the same compound, the ALBUMIN [3] was 4.5 G/DL, the “ALKALINE PHOSPHATASE” value [3] was 614.33 u/L and the “ASPARTATE AMINOTRANSFERASE” value [3] was 88 u/L. For the same compound, the “BLOOD UREA NITROGEN” value [3] was 13.67 mg/dL, the “CARBON DIOXIDE” value [3] was 25.33 mmol/L and the CHLORIDE [3] was 105.67 MEQ/L. For the same compound, the CHOLESTEROL [3] was 37 mg/dL, the “CREATINE PHOSPHOKINASE” value [3] was 178 u/L and the CREATININE [3] was 0.16 mg/dL. For the same compound, the GLUCOSE [3] was 148 mg/dL, the “LACTATE DEHYDROGENASE” value [3] was 196.67 u/L and the PHOSPHORUS [3] was 13.37 mg/dL. The POTASSIUM [3] was 6.75 MEQ/L, the SODIUM [3] was 151.6 MEQ/L and the “TOTAL BILIRUBIN” value [3] was 0.2 mg/dL. The “TOTAL PROTEIN” value [3] was 6.17 G/DL, the “URIC ACID” value [3] was 1.43 mg/dL and the “ABSOLUTE BASOPHIL” value [4] was 0 CELLS/uL. For the same compound, the “ABSOLUTE EOSINOPHIL” value [4] was 38.33 CELLS/uL, the “ABSOLUTE LYMPHOCYTE” value [4] was 13151.33 CELLS/uL and the “ABSOLUTE SEGMENTED NEUTROPHIL” value [4] was 736.67 CELLS/uL. For the same compound, the BASOPHIL [4] was 0%, the EOSINOPHIL [4] was 0.33% and the “ERYTHROCYTE COUNT” value [4] was 6.2 x10E6/uL. For the same compound, the HEMATOCRIT [4] was 39.87%, the “LEUKOCYTE COUNT” value [4] was 14.1 x10E3/uL and the LYMPHOCYTE [4] was 93.33%. The “MEAN CORPUSCULAR HEMOGLOBIN” value [4] was 24.13 pg, the “MEAN CORPUSCULAR HEMOGLOBIN CONCENTRATION” value [4] was 37.57 G/DL and the “MEAN CORPUSCULAR VOLUME” value [4] was 64.33 fL. For the same compound, the MONOCYTE [4] was 1%, the NEUTROPHIL [4] was 5.33% and the “NUCLEATED RED BLOOD CELLS” value [4] was 0 /100WBC. The “PLATELET COUNT” value [4] was 1362.67 x10E3/uL and the “ALANINE AMINOTRANSFERASE” value [4] was 51.67 u/L.

From ChEMBL document CHEMBL3885881, “DrugMatrix”
